One test concerns BasC wild-type. Kind of test: [3H]L-alanine transport (influx, efflux, exchange) in BasC proteoliposomes. Format: biochemical, Carnobacterium sp AT7. The following applies: for V: 4 mM L-alanine inside PLs, without Nb74. The procedure: BasC-GFP protein was reconstituted in E. coli polar lipids (Sigma-Aldrich, Madrid, Spain), as previously described. Lipids were dried under N2 and suspended in reconstitution buffer (20 mM Tris-Base, 150 mM NaCl, pH 7.4). The suspension was sonicated to clarity and purified BasC protein was added to reach the desired protein to lipid ratio of 1:100 (w:w). To destabilize the liposomes, 1.25% ß-D-octylglucoside was added and the mixture was incubated on ice with occasional agitation for 5 min. DDM and ß-D-octylglucoside were removed by dialysis for 40 h at 4 °C against 100 volumes of dialysis buffer. Proteoliposome (PL) suspensions were frozen in liquid N2 and stored at −80 °C until use.
For uptake experiments, the desired intraliposomal amino acid concentration was added to the PL suspension, which was then subjected to three freeze/thaw cycles. The extraliposomal amino acid content was then removed by ultracentrifugation (100,000 × g for 1 h at 4 °C) and PLs were resuspended to one-third of the initial volume with reconstitution buffer. Amino acid uptake assays were initiated after mixing 10 μl of cold PLs with 180 μl of transport buffer (20 mM Tris-Base, 150 mM NaCl, pH 7.4 plus 0.5–1 µCi/180 µl of radiolabeled L-amino acid (Perkin Elmer, Waltham, MA)) supplemented with the unlabeled amino acid to the desired concentration. This mixture was then incubated at room temperature for the indicated periods. […] Filters were then washed twice with 2 ml of stop buffer and dried, and the trapped radioactivity was counted. Transport measured in PLs containing no amino acid was subtracted from each data point to calculate the net exchange. […] BasC protein in PLs was determined by Coomassie blue staining in SDS-PAGE gels compared with known amounts of BasC in DDM micelles, determined by BCA assay (Pierce, Rockford, IL) and loaded in the same gel.

In another test the target is BasC K154A mutant. Put plainly: Thermostability-based L-alanine binding assay, K154A. The following applies: for Kd K154A binding curve, normalized signal: n=1-3. Also noted: species or system Carnobacterium sp AT7. The procedure: GFP-fused BasC proteins purified in DM were incubated for 10 min at 4–60 °C (Y236F and K154A mutants) or 4–70 °C (wild-type). In total, 200 µl of 2 mg ml^−1 protein was used for each temperature point. Protein was then centrifuged at 186,000 × g for 30 min. […] Fractions (200 µl) were collected and measured for GFP fluorescence. The peak heights were normalized to those of samples incubated at 4 °C and were fit to the Hill equation using the GraphPad Prism 4 program (GraphPad Software Inc., San Diego, CA). Melting temperatures (Tm) were determined by fitting the curves to a sigmoidal dose-response equation, as previously described.
BasC-GFP proteins were then incubated at the calculated Tm for 10 min and centrifuged at 186,000 × g for 30 min. […] Binding affinities were determined by fitting the curves to a sigmoidal dose-response equation.

The target of a further test is T1, hAsc-1 K194A mutant (Homo sapiens, UniProt Q9NS82, K194A).
T1 sequence (Q9NS82 1-523 K194A): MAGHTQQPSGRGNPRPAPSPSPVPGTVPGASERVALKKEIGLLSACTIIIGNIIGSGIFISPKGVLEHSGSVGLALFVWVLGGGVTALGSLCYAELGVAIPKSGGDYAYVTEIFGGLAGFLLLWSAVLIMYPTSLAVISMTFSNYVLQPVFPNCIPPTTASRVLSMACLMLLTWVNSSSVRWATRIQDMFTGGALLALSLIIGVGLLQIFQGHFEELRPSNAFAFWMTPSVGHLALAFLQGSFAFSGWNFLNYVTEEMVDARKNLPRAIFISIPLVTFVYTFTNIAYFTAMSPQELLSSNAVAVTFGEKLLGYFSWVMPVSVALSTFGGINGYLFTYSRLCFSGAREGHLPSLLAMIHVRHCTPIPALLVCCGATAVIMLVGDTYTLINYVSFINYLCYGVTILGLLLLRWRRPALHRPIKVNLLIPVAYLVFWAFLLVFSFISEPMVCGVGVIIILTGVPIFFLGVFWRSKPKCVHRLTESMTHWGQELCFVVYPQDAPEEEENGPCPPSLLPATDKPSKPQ
T1 sequence (P08195 1-529 partner): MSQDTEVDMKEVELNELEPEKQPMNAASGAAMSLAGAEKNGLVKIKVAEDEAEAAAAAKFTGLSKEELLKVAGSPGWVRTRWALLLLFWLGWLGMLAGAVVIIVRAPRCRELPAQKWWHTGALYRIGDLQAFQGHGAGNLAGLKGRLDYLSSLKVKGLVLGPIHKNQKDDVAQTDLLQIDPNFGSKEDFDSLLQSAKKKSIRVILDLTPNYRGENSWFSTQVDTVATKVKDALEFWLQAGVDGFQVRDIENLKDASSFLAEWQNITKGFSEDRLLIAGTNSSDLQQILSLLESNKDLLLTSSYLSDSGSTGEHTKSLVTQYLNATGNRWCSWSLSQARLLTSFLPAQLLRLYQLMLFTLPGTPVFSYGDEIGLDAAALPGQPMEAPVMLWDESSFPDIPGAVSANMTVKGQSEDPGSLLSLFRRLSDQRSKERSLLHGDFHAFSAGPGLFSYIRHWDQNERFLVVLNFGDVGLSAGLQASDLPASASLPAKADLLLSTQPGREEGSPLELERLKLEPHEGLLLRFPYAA
Put plainly: [3H]L-alanine uptake in HeLa cells, hAsc-1 K194A.

Several values for one entry are separate records, joined by “and”; a condition that tells them apart may be missing. Equal values may be shown once. Read-outs that look alike come from different tables or passages of the source.

As a reminder, the Km is the substrate concentration at which the rate is half of its maximum. In the case of `C[C@H](N)C(=O)O` [L-alanine], the “saturation of the transporter at 4 mM intraliposomal L-alanine” value in the test with BasC wild-type (BasC wild-type) is given as “about 80%”. Moreover, the “V/[L-Ala]” value in the test with BasC wild-type (Eadie-Hofstee, L-alanine 800 μM, with 5 µM Nb74, n=1-3 and mean) is listed as 0.010 pmol µg prot-1 s-1µM-1. Also, the Km with BasC wild-type (L-alanine concentrations up to 800 µM, absence of Nb74, read-out: extracellular Km) is 65 ± 12 µM; in the test with BasC wild-type (extracellular side, wild-type, read-out: Km (o)), 53.7 ± 3.97 µM; in the test with BasC wild-type (full range kinetics inhibited by 5 µM Nb74, read-out: extracellular Km) it was 46 ± 9 µM; with BasC wild-type (intracellular side, wild-type, read-out: Km (i)) it was 2220 ± 150 µM. For the same compound, the V in the test with BasC wild-type (external [3H]L-alanine 100 μM, n=1-3 and mean) was 5.346 pmol L-Ala μg BasC-1 s-1 and 5.124 pmol L-Ala μg BasC-1 s-1 and 4.879 pmol L-Ala μg BasC-1 s-1; in the test on BasC wild-type (external [3H]L-alanine 200 μM, n=1-3 and mean) it was 7.346 pmol L-Ala μg BasC-1 s-1 and 6.582 pmol L-Ala μg BasC-1 s-1 and 6.938 pmol L-Ala μg BasC-1 s-1; with BasC wild-type (external [3H]L-alanine 400 μM, n=1-3 and mean) it was 7.143 pmol L-Ala μg BasC-1 s-1 and 6.357 pmol L-Ala μg BasC-1 s-1 and 9.257 pmol L-Ala μg BasC-1 s-1. Further, the Vmax with BasC wild-type (wild-type) is reported as 6.37 ± 0.70 pmols L-alanine µg protein^−1 s^−1. The Kd on BasC K154A mutant (K154A, incubated at Tm, L-alanine 0–200 mM, read-out: KD (apparent, thermostability-based)) is 61.4 ± 7.3 mM; on BasC K154A mutant (individual experiments n=1, n=2, n=3, read-out: Apparent Kd K154A), 55.6 mM and 58.9 mM and 69.7 mM; on BasC K154A mutant (mean of n=3, read-out: Apparent Kd K154A, mean), 61.4 mM. For the same compound, the “Kd K154A binding curve, normalized signal” value is 14.092 and 14.380 and 15.376 on BasC K154A mutant ([L-Alanine] 6.25 mM); 15.845 and 21.520 and 16.121 at BasC K154A mutant ([L-Alanine] 12.50 mM); 35.951 and 29.574 and 35.797 at BasC K154A mutant ([L-Alanine] 25 mM); 50.837 and 57.901 and 51.971 at BasC K154A mutant ([L-Alanine] 50 mM); 91.898 and 90.173 and 89.225 on BasC K154A mutant ([L-Alanine] 100 mM); 95.225 and 92.554 and 88.658 at BasC K154A mutant ([L-Alanine] 150 mM). The “Kd K154A binding curve, normalized signal” value on BasC K154A mutant ([L-Alanine] 200 mM) worked out at 100.000. Further, the “reduction of Vmax vs. wild-type” value at hAsc-1 K194A mutant is on record as ~ 10 fold. Further, the “reduction of external apparent affinity vs. wild-type” value on hAsc-1 K194A mutant is ~ 10 fold.

(Values after article PMC6472337, “L amino acid transporter structure and molecular bases for the asymmetry of substrate interaction” (Nature Communications, 2019).)
